pIC50: −log10 of the molar value.
Columns and labels:
[1] = test system: MDA-MB-231 cells; test: MTT assay, MDA-MB-231; type: cell-based, human; conditions: Homo sapiens, MDA-MB-231, 24 h, 0 to 250 μM, read-out: IC50 Breast Cancer (MDA-MB-231)
Protocol: (§1) To establish the cytotoxic effect of the nitrogenous derivatives, cells were treated with various concentrations of the drugs ranging from 0 to 250 μM. Following a 24 h incubation period, cell viability was assessed using the MTT assay. Mitoxantrone served as a positive control to evaluate growth inhibition. Since heterogeneity is a hallmark of cancer, the study included cell lines with diverse genomic and proteomic profiles. […] In this regard, further optimization would be required to increase the selective therapeutic potential of compound 9. To determine whether the anti-proliferative effect of the nitrogen derivatives could be translated to other malignancies, we tested the cytotoxic effect on the HCT8 (colorectal cancer) cell line. HCT8 is an adenocarcinoma driven by the Kirsten Rat Sarcoma (KRAS) mutation, unlike MCF-10A [28].
(§2) The MTT assay was utilized to examine the imidazole derivatives’ anti-proliferative activity against MCF-10A, MDA-MB-231, and HCT8 cell lines, purchased from ATCC, USA [47]. Firstly, 5 × 10^3 cells/well were seeded in a 96-well plate in 100 μL of growth medium and were subsequently cultured overnight with various concentrations of each compound ranging from 0 to 250 µM [48]. The media was aspirated, and 50 µL of serum-free media and 50 µL of MTT solution were added to each well. Next, cells were incubated at 37 °C for 3 h, then 150 µL of MTT solvent was added into each well. After that, plates were wrapped in foil and agitated for 15 min on an orbital shaker. Finally, the absorbance was measured within 1 h at OD590 nm. Half-maximal inhibitory concentration IC50 values (μM) were calculated for each compound from the dose–response curve. Experiments were performed in triplicates.

[2] = test system: HCT8 cells; test: MTT assay, HCT8; type: cell-based; conditions: Homo sapiens, HCT-8, 24 h, 0 to 250 μM, read-out: IC50 Colorectal Cancer (HCT8)
Protocol: as §1, §2

[3] = test system: KAIMRC1 cells; test: CellTiter-Glo assay, KAIMRC1; type: cell-based; conditions: Homo sapiens, 24 h, read-out: IC50 Breast Cancer KAIMRC1
Protocol: (§3) To validate the anti-proliferative activity of the imidazole derivatives, the compounds were tested against several cancer cell lines, which included breast cancer (MDA-MB-231, KAIMRC1, and KAIMRC2), colorectal cancer (HCT8), and acute promyelocytic leukemia cells (HL60). KAIMRC1 was isolated from a person with stage II-B breast cancer and is ER+/PR+ and HER2-. In comparison, KAIMRC2 was isolated from a person with metastasized breast cancer and is a triple-negative (ER-/PR-, and HER2-) tumor cell line.
(§4) The CellTiter-Glo assay (Promega™, Madison, WI, USA) was used to evaluate imidazole and oxazolone derivatives cytotoxicity against various cancer cell lines; MCF-10A, HL60, MDA-MB-231, and HCT8, purchased from ATCC, USA, except KAIMRC1 and KAIMRC2, which were isolated, established, and characterized in the core laboratory facility KAIMRC, Riyadh, Saudi Arabia. The cells were seeded in white 96-well plates at a density of 5 × 10^3 cells/well in a 100 μL of growth medium with various concentrations of each compound ranging from 0 to 250 µM. Cells were incubated at 37 °C for 24 h. Plates were equilibrated at RT for 30 min. A quantity of 100 µL of CellTiter-Glo reagent was added to each well and mixed for 2 min on an orbital shaker. Plates were incubated for 10 min at RT before measuring the luminescence using an Envision plate reader (Perkin Elmer). Half-maximal inhibitory concentration IC50 values (μM) were calculated for each imidazole derivative from the dose–response curve. The cytotoxic effect at a concentration <10 µM was considered strongly active and from 11 to 100 µM was considered moderately active, whereas above 100 µM was deemed non-active. Mitoxantrone was utilized as a positive control. Experiments were performed in triplicates.

[4] = test system: KAIMRC2 cells; test: CellTiter-Glo assay, KAIMRC2; type: cell-based; conditions: Homo sapiens, 24 h, read-out: IC50 Breast Cancer KAIMRC2
Protocol: as §3, §4

[5] = test system: MCF-10A cells; test: MTT assay, MCF-10A; type: cell-based, human; conditions: Homo sapiens, MCF-10A, 24 h, 0 to 250 μM, read-out: IC50 Non-Malignant Breast Epithelial Cells (MCF-10A)
Protocol: as §1, §2

[6] = test system: HCT8 cells; test: CellTiter-Glo assay, HCT8; type: cell-based; conditions: Homo sapiens, HCT-8, 24 h, read-out: IC50 Colorectal Cancer HCT8
Protocol: as §3, §4

[7] = test system: HL60 cells; test: CellTiter-Glo assay, HL60; type: cell-based, human; conditions: Homo sapiens, HL-60, 24 h, read-out: IC50 Leukemia HL60
Protocol: as §3, §4

[8] = test system: MDA-MB-231 cells; test: CellTiter-Glo assay, MDA-MB-231; type: cell-based; conditions: Homo sapiens, 24 h, read-out: IC50 Breast Cancer MDA-MB-231
Protocol: as §3, §4

pIC50 [1] | pIC50 [2] | pIC50 [6] | pIC50 [8] | Structure (SMILES) | pIC50 [3] | pIC50 [4] | pIC50 [5] | pIC50 [7]
4.64 | 4.29 |  |  | O=C1OC(c2ccccc2)=N/C1=C\c1ccccc1 [Compound 1] | 4.21 | 4.23 |  | 
4.36 | 4.14 | 3.92 |  | O=C1OC(c2ccccc2)=N/C1=C\C=C\c1ccccc1 [Compound 2] | 3.98 | 3.92 | 4.18 | 
4.40 |  |  |  | COc1cccc(/C=C2\N=C(c3ccccc3)OC2=O)c1 [Compound 3] | 4.23 | 4.19 |  | 
4.16 |  |  |  | CN(C)c1ccc(/C=C2\N=C(c3ccccc3)OC2=O)cc1 [Compound 4] |  |  |  | 
4.40 | 4.41 | 4.20 | 4.28 | O=C1OC(c2ccccc2)=N/C1=C\c1ccccc1O [Compound 5] | 4.54 | 4.52 | 4.47 | 4.75
4.64 | 4.13 | 4.04 | 4.22 | O=C1OC(c2ccccc2)=N/C1=C\c1ccco1 [Compound 7] | 4.41 | 4.06 | 4.20 | 4.17
4.11 |  |  |  | COc1ccc(/C=C2\N=C(c3ccccc3)N(N)C2=O)cc1 [Compound 13] |  |  |  | 
3.86 |  |  | 3.61 | NN1C(=O)/C(=C/c2ccccc2)N=C1c1ccccc1 [Compound 14] | 3.61 | 3.79 |  | 

Structure (SMILES) | pIC50 [1] | pIC50 [2] | pIC50 [6] | pIC50 [8] | pIC50 [3] | pIC50 [4] | pIC50 [5] | pIC50 [7]
COc1cc(/C=C2\N=C(c3ccccc3)OC2=O)ccc1O [Compound 6] | 4.30 | 4.15 |  |  |  |  | 4.30 | 
O=C1/C(=C/c2ccccc2O)N=C(c2ccccc2)N1Nc1ccc([N+](=O)[O-])cc1[N+](=O)[O-] [Compound 10] | 4.25 |  |  |  |  |  |  | 
COc1cc(/C=C2\N=C(c3ccccc3)N(Nc3ccc([N+](=O)[O-])cc3[N+](=O)[O-])C2=O)ccc1O [Compound 11] | 4.24 |  | 4.39 | 4.34 | 4.61 | 4.49 |  | 4.68
O=C1/C(=C/c2ccco2)N=C(c2ccccc2)N1Nc1ccc([N+](=O)[O-])cc1[N+](=O)[O-] [Compound 12] | 4.29 |  |  |  |  |  |  | 
O=C1c2c(O)ccc(O)c2C(=O)c2c(NCCNCCO)ccc(NCCNCCO)c21 [Mitoxantrone, reference compound] | 5.50 | 6.15 | 5.25 | 5.71 | 5.77 | 6.10 | 5.54 | 6.90

— article PMC9029529, “Distinct Mechanisms of Cytotoxicity in Novel Nitrogenous Heterocycles: Future Directions for a New Anti-Cancer Agent” (Molecules, 2022)
